Common to all, as to assay: Cell proliferation assay (CellTiter-Glo, 72 hours)
One assay has as its target T1, BaF3 EML4-ALK (Homo sapiens, UniProt Q9UM73).
T1 construct: The EML4-ALK gene (variant 1) was synthesized at GenScript and cloned into pCDH-CMV-MCS-EF1-Puro plasmid (System Biosciences, Inc); fused on or other part: Q9HC35 (Echinoderm microtubule-associated protein-like 4)
In kind it is cell-based. The conditions noted are these: anti-cell proliferation. The method, boiled down: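 Ba/F3 cells were stably transduced with wild-type EML4-ALK variant 1 and selected for IL-3-independent growth. Cells were seeded for 24 h, then exposed to compounds for 72 h at 37 °C, 5% CO2. Viability was read as ATP luminescence and IC50 values were fitted.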

The subject of a further assay is KG-1. In kind it is cell-based, human. The method, boiled down:
(§1)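 Cells used were KG-1 (AML), TT medullary thyroid carcinoma ([…]) and KM12 colon (TPM3-TRKA). Viability was read by CellTiter-Glo ATP luminescence, and IC50 derived by curve fitting.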

Another assay has as its system KM12 cell (TPM3-TRKA). In kind it is cell-based, human. The method, boiled down: as §1
Another assay deals with TT cell (RET C634W). The format is cell-based. The conditions noted are these: Homo sapiens, anti-cell proliferation. The procedure: Human medulla thyroid carcinoma cell line TT (containing RET […] mutation) and acute myelogenous cell line KG-1 were purchased from ATCC. Human colon cancer cell line KMI2 (containing TPM3-TRKA) was obtained from NCI.
Two thousand cells per well were seeded in 384 well white plate for 24 hrs, and then treated with compounds for 72 hours (37° C., 5% CO2). Cell proliferation was measured using CellTiter-Glo luciferase-based ATP detection assay (Promega) following the manufactures's protocol. IC50 determinations were performed using GraphPad Prism software (GraphPad, Inc., San Diego, Calif.).

Another assay has as its target T2, BaF3 KIF5B-RET (Homo sapiens, UniProt P07949).
T2 construct: fused on or other part: P33176 (Kinesin-1 heavy chain)
In kind it is cell-based. The following applies: anti-cell proliferation, read-out: BaF3 KIF5B-RET IC50. The method, boiled down: (§2)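 Ba/F3 cells were lentivirally transduced with wild-type or mutant KIF5B-RET, puromycin-selected and grown without IL-3. CellTiter-Glo ATP luminescence read viability, and IC50 values came from curve fitting.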

A further assay deals with T3, BaF3 KIF5B-RET_V804M (Homo sapiens, UniProt P07949, V804M, cells depend on it).
T3 construct: fused on or other part: P33176 (Kinesin-1 heavy chain)
In kind it is cell-based. The following applies: anti-cell proliferation, read-out: BaF3 KIF5B-RET_V804M IC50. The method, boiled down: as §2

The next assay addresses T4, BaF3 KIF5B-RET_G810R (Homo sapiens, UniProt P07949, G810R, cells depend on it).
T4 construct: fused on or other part: P33176 (Kinesin-1 heavy chain)
In kind it is cell-based. The following applies: anti-cell proliferation, read-out: BaF3 KIF5B-RET_G810R IC50.

Where [1] appears, read: Homo sapiens, KG-1, anti-cell proliferation.
[2] abbreviates: Homo sapiens, KM12, anti-cell proliferation.

T2 sequence (P07949 whole entry, change not shown, the tested form may be a part): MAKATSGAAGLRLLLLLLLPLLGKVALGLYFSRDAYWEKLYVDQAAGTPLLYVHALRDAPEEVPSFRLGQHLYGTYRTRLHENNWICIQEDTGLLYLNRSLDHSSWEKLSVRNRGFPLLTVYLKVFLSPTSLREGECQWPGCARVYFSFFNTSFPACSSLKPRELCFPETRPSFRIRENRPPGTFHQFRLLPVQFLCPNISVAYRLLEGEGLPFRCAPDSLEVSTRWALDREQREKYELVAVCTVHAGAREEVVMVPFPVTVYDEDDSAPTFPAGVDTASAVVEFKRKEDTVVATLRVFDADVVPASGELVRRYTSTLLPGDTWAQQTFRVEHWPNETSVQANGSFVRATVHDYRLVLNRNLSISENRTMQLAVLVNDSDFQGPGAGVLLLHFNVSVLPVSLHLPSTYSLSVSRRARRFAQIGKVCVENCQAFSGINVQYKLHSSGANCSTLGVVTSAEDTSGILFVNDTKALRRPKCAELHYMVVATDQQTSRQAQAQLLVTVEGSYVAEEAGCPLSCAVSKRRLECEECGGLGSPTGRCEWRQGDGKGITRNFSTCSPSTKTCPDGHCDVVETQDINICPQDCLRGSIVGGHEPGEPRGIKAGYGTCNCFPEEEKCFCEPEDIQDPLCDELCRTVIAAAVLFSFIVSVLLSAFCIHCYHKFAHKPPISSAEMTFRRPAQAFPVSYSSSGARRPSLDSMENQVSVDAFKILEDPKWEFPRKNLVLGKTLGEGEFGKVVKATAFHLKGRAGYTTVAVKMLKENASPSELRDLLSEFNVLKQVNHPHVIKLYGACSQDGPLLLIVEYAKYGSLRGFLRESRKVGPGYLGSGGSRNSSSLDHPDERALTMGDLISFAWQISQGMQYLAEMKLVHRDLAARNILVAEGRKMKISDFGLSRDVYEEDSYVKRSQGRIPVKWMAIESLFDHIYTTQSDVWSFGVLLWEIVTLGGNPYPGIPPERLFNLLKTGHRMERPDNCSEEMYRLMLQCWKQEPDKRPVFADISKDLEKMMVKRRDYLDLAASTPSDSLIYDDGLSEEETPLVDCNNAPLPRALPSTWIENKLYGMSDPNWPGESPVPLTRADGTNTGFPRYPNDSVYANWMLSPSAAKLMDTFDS
T1 sequence (Q9UM73 whole entry, change not shown, the tested form may be a part): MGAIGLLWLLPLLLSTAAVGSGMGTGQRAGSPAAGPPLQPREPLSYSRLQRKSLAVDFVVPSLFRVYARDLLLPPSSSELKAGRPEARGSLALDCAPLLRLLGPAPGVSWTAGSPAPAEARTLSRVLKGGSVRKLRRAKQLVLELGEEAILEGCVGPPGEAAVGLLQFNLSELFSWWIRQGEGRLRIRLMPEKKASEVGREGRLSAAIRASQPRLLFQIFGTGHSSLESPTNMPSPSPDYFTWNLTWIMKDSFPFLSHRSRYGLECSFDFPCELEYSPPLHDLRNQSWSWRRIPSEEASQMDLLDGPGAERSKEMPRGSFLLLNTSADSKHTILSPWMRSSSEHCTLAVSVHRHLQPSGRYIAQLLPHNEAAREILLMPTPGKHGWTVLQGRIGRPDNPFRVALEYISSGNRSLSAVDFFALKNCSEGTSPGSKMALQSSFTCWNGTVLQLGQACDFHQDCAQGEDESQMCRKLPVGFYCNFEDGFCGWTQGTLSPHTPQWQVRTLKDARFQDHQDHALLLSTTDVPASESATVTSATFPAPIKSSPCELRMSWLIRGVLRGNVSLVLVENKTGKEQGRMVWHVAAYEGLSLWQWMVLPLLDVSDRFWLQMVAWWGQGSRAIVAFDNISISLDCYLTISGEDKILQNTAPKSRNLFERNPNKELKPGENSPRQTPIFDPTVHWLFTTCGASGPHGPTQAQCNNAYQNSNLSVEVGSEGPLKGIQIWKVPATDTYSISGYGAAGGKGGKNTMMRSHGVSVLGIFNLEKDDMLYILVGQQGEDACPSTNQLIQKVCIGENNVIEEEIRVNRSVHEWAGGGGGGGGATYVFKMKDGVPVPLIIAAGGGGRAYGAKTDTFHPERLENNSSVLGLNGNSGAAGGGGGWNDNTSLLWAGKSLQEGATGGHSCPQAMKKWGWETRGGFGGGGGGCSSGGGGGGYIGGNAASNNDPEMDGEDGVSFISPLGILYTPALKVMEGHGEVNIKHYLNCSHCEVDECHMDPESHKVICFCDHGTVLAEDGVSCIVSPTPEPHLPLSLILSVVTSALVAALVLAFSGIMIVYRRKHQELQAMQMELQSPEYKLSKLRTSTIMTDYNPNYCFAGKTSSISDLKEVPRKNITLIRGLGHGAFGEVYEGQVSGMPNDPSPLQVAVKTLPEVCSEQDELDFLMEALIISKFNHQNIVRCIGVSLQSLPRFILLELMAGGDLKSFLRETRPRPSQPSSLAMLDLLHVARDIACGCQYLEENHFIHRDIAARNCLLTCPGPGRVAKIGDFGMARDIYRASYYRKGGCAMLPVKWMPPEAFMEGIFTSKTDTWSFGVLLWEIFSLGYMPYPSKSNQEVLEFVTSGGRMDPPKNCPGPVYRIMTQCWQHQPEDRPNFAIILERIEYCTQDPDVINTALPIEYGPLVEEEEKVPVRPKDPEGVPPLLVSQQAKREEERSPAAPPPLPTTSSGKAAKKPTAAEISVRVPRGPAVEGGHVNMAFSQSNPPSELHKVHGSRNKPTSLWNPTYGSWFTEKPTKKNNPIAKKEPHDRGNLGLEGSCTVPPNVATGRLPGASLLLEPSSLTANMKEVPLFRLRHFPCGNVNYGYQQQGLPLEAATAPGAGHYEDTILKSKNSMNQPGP
T3 sequence (P07949 whole entry V804M, the tested form may be a part): as the sequence (P07949 whole entry, change not shown, the tested form may be a part) above, with V804M counted along it
T4 sequence (P07949 whole entry G810R, the tested form may be a part): as the sequence (P07949 whole entry, change not shown, the tested form may be a part) above, with G810R counted along it

For the compound `C[C@H]1CNC(=O)c2cnn3cc4c(nc23)N(Cc2cc(F)ccc2O1)[C@@H]1CCC[C@H]1O4` [Compound 2], the figures for the GI50 on BaF3 EML4-ALK, at BaF3 KIF5B-RET and at BaF3 KIF5B-RET_V804M were greater than 10 µM, 1.45 µM and greater than 10 µM, respectively. Moreover, the IC50 (in general, the concentration that gives 50% inhibition) with KG-1 (setting [1]) is 5 µM; in the assay on KM12 cell (TPM3-TRKA) (setting [2]), 0.255 µM; with TT cell (RET C634W), 1.78 µM.

Turning to `C[C@H]1CNC(=O)c2cnn3cc4c(nc23)N(Cc2cc(F)cc(F)c2O1)[C@@H]1CCC[C@@H]1O4` [Compound 3, (3aR,11S,20aS)-7,9-difluoro-11-methyl-2,3,3a,12,13,20a-hexahydro-1H,5H-17-19-(metheno)cyclopenta[5,6][1,4] oxazino[3,4-i]pyrazolo[4,3-f][1,4,8,10]benzoxatriacyclotridecin-14(11H)-one], the GI50 is 1.5 µM at BaF3 EML4-ALK, less than 0.0002 µM at BaF3 KIF5B-RET and 1.7 µM on BaF3 KIF5B-RET_V804M. Moreover, the figures for the IC50 with KG-1 (setting [1]), with KM12 cell (TPM3-TRKA) (setting [2]) and with TT cell (RET C634W) were 0.505 µM, 0.0042 µM and 0.0079 µM, respectively.

As to `C[C@H]1CNC(=O)c2cnn3cc4c(nc23)N(Cc2cc(F)ccc2O1)[C@@H]1COC[C@@H]1O4` [Compound 4, (3aR,11S,20aS)-7-fluoro-11-methyl-1,3,3a,12,13,20a-hexahydro-5H-17-19-(metheno)furo[3′,4′:5,6][1,4] oxazino[3,4-i]pyrazolo[4,3-f][1,4,8,10]benzoxatriacyclotridecin-14(11H)-one], the GI50 was determined as 3.29 µM at BaF3 EML4-ALK, 0.184 µM on BaF3 KIF5B-RET and 5 µM on BaF3 KIF5B-RET_V804M. Further, the IC50 in the assay on KG-1 (setting [1]) amounted to 5 µM; in the assay on KM12 cell (TPM3-TRKA) (setting [2]) it was 0.022 µM; with TT cell (RET C634W), 0.462 µM.

On to `O=C1NC[C@@H](F)COc2ncc(F)cc2CN2c3nc4c1cnn4cc3O[C@H]1CCC[C@H]12` [Compound 39, 3aR,12R,21aS)-7,12-difluoro-2,3,3a,11,12,13,21a-octahydro-1H,5H, 15H-18,20-(metheno)cyclopenta[5,6][1,4] oxazino[4,3-e]pyrazolo[3,4-h]pyrido[2,3-b][1,5,7,11]oxatriazacyclotetradecin-15-one], for which the GI50 at BaF3 EML4-ALK is 0.152 µM; at BaF3 KIF5B-RET it was 0.0102 µM; at BaF3 KIF5B-RET_G810R, 0.0573 µM; on BaF3 KIF5B-RET_V804M it was 3 µM. Besides, the IC50 turned out to be 0.0592 µM with KG-1 (setting [1]) and 0.0074 µM with KM12 cell (TPM3-TRKA) (setting [2]).

Take `O=C1NCC(F)(F)COc2ncc(F)cc2CN2c3nc4c1cnn4cc3O[C@H]1CCC[C@H]12` [Compound 40, (3aR,21aS)-7,12,12-trifluoro-2,3,3a,11,12,13,14,21a-octahydro-1H,5H, 15H-18,20-(metheno)cyclopenta[5,6][1,4] oxazino[4,3-e]pyrazolo[3,4-h]pyrido[2,3-b][1,5,7,11]oxatriazacyclotetradecin-15-one]: the GI50 is 1.95 µM on BaF3 EML4-ALK, less than 0.0002 µM at BaF3 KIF5B-RET, 0.0018 µM at BaF3 KIF5B-RET_G810R and 5 µM on BaF3 KIF5B-RET_V804M. Also, the IC50 with KG-1 (setting [1]) is 0.0191 µM; in the assay on KM12 cell (TPM3-TRKA) (setting [2]), less than 0.0002 µM.

In the case of `C[C@@H]1CNC(=O)c2cnn3cc4c(nc23)N(Cc2cc(F)cnc2O1)[C@H]1CCC[C@H]1O4` [Compound 44, (3aS,11R,20aR)-7-fluoro-11-methyl-2,3 3a,12,13,20a-hexahydro-1H,5H-17,19-(metheno)cyclopenta[5,6][1,4] oxazino[3,4-i]pyrazolo[4,3-f]pyrido[3,2-l][1,4,8,10]oxatriazacyclotridecin-14(11H)-one], the GI50 on BaF3 EML4-ALK, on BaF3 KIF5B-RET, on BaF3 KIF5B-RET_G810R and at BaF3 KIF5B-RET_V804M was greater than 10 µM each time. In addition, the IC50 is greater than 10 µM in the assay on KG-1 (setting [1]) and 0.668 µM with KM12 cell (TPM3-TRKA) (setting [2]).

As for `O=C1NC2(CCC2)CCOc2ncc(F)cc2CN2c3nc4c1cnn4cc3O[C@H]1CCC[C@H]12` [Compound 45], the GI50 on BaF3 EML4-ALK is 3.11 µM; on BaF3 KIF5B-RET, 0.526 µM; at BaF3 KIF5B-RET_G810R, 1.71 µM; on BaF3 KIF5B-RET_V804M, 5 µM. Besides, the IC50 with KG-1 (setting [1]) was found to be 1.13 µM; in the assay with KM12 cell (TPM3-TRKA) (setting [2]) it was 0.202 µM.

Take `O=C1N[C@H](C(F)F)COc2ncc(F)cc2CN2c3nc4c1cnn4cc3O[C@H]1CCC[C@H]12` [Compound 47, (3aR,12S,20aS)-12-(difluoromethyl)-7-fluoro-2,3,3a,12,13,20a-hexahydro-1H,5H-17,19-(metheno)cyclopenta[5,6][1,4] oxazino[3,4-i]pyrazolo[4,3-f]pyrido[3,2-l][1,4,8,10]oxatriazacyclotridecin-14(11H)-one]: the GI50 at BaF3 EML4-ALK is 0.139 µM; at BaF3 KIF5B-RET it was less than 0.0002 µM; at BaF3 KIF5B-RET_G810R it was 0.0036 µM; at BaF3 KIF5B-RET_V804M, 0.469 µM. For the same compound, the IC50 is 0.0035 µM with KG-1 (setting [1]) and less than 0.0002 µM in the assay with KM12 cell (TPM3-TRKA) (setting [2]).

Take `O=C1N[C@H](C(F)(F)F)COc2ncc(F)cc2CN2c3nc4c1cnn4cc3O[C@H]1CCC[C@H]12` [Compound 48, (3aR,12S,20aS)-7-fluoro-12-(trifluoromethyl)-2,3,3a,12,13,20a-hexahydro-1H,5H-17,19-(metheno)cyclopenta[5,6][1,4]oxazino[3,4-i]pyrazolo[4,3-f]pyrido[3,2-l][1,4,8,10]oxatriazacyclotridecin-14(11H)-one]: the GI50 was found to be 0.456 µM on BaF3 EML4-ALK, 0.0002 µM on BaF3 KIF5B-RET, 0.0909 µM at BaF3 KIF5B-RET_G810R and 1.07 µM at BaF3 KIF5B-RET_V804M. Besides, the IC50 in the assay with KG-1 (setting [1]) was determined as 0.117 µM; in the assay with KM12 cell (TPM3-TRKA) (setting [2]), 0.0059 µM.

Consider `O=C1NC[C@@H](CO)Oc2ncc(F)cc2CN2c3nc4c1cnn4cc3O[C@H]1CCC[C@H]12` [Compound 49, (3aR,11S,20aS)-7-fluoro-11-(hydroxymethyl)-2,3,3a,12,13,20a-hexahydro-1H,5H-17,19-(metheno)cyclopenta[5,6][1,4]oxazino[3,4-i]pyrazolo[4,3-f]pyrido[3,2-l][1,4,8,10]oxatriazacyclotridecin-14(11H)-one], for which the GI50 on BaF3 EML4-ALK was greater than 10 µM; at BaF3 KIF5B-RET it was 0.397 µM; at BaF3 KIF5B-RET_G810R, 1.64 µM; at BaF3 KIF5B-RET_V804M, 5 µM. Also, the IC50 worked out at 5.24 µM in the assay on KG-1 (setting [1]) and 1.46 µM in the assay on KM12 cell (TPM3-TRKA) (setting [2]).

With “(3aR,11s,13S,21aS)-7-fluoro-2,3,3a,12, 13,14,15,21a-octahydro-1H,5H,11H- 11,13-methano-18,20- (metheno)cyclopenta[5,6][1,4] oxazino[4,3-e]pyrazolo[3,4-h]pyrido[2,3- b][1,5,7,11]oxatriazacyclotetradecine [Compound 46]”, the GI50 on BaF3 EML4-ALK was 0.0555 µM; on BaF3 KIF5B-RET, less than 0.0002 µM; at BaF3 KIF5B-RET_G810R, 0.0029 µM; on BaF3 KIF5B-RET_V804M it was 0.0715 µM. The values for the IC50 in the assay on KG-1 (anti-cell proliferation) and with KM12 cell (TPM3-TRKA) (anti-cell proliferation) were 0.0059 µM and 0.0028 µM, respectively.

For the origin of these results see US10745416B2, “Macrocyclic compounds for treating disease” (Turning Point Therapeutics, Inc., priority 2017, dated 2020).
